According to patent US10376510B2, “2,4- or 4,6-diaminopyrimidine compounds as IDH2 mutants inhibitors for the treatment of cancer” (AGIOS PHARMACEUTICALS, INC., priority 2013, dated 2019):

What was measured:
[1] = tested on: U87MG pLVX-IDH2 R140Q-neo cells; assay: U87MG pLVX-IDH2 R140Q-neo cell based assay (2-HG in media by LC-MS); set-up: key to Cell R140Q: values indicated as “A” represent an IC50 of less than 50 nM; values indicated as “B” represent an IC50 of between 50 nM and 100 nM; values indicated as “C” represent an IC50 of greater than 100 nM; values indicated as “D” represent that the compound was either inactive or not tested in that particular assay; settings: 2-HG at 48 hours, class symbols; for IC50: Homo sapiens, U-87 MG
Procedure: U87MG pLVX-IDH2 R140Q-neo Cell Based Assay.
U87MG pLVX-IDH2 R140Q-neo cells are grown in T125 flasks in DMEM containing 10% FBS, 1× penicillin/streptomycin and 500 μg/mL G418. They are harvested by trypsin and seeded into 96 well white bottom plates at a density of 5000 cell/well in 100 μl/well in DMEM with 10% FBS. No cells are plated in columns 1 and 12. Cells are incubated overnight at 37° C. in 5% CO2. The next day compounds are made up at 2x concentration and 100 ul are added to each cell well. The final concentration of DMSO is 0.2% and the DMSO control wells are plated in row G. The plates are then placed in the incubator for 48 hours. At 48 hours, 100 ul of media is removed from each well and analyzed by LC-MS for 2-HG concentrations. The cell plate is placed back in the incubator for another 24 hours. At 72 hours post compound addition, 10 mL/plate of Promega Cell Titer Glo reagent is thawed and mixed. The cell plate is removed from the incubator and allowed to equilibrate to room temperature. Then 100 ul of reagent is added to each well of media. The cell plate is then placed on an orbital shaker for 10 minutes and then allowed to sit at room temperature for 20 minutes. The plate is then read for luminescence with an integration time of 500 ms to determine compound effects on growth inhibition.

IDH2 R140Q = target: T1, IDH2 R140Q (Homo sapiens, UniProt P48735, R140Q); assay: IDH2 R140Q enzymatic assay (NADPH cofactor depletion, diaphorase/resazurin readout); assay type: biochemical; set-up: key to Enz R140Q: values indicated as “A” represent an IC50 of less than 50 nM; values indicated as “B” represent an IC50 of between 50 nM and 100 nM; values indicated as “C” represent an IC50 of greater than 100 nM; values indicated as “D” represent that the compound was either inactive or not tested in that particular assay; settings: IDH2 R140Q enzyme, 16 hours preincubation, class symbols; for IC50: read-out: Enz R140Q
T1 sequence (P48735 40-452 R140Q): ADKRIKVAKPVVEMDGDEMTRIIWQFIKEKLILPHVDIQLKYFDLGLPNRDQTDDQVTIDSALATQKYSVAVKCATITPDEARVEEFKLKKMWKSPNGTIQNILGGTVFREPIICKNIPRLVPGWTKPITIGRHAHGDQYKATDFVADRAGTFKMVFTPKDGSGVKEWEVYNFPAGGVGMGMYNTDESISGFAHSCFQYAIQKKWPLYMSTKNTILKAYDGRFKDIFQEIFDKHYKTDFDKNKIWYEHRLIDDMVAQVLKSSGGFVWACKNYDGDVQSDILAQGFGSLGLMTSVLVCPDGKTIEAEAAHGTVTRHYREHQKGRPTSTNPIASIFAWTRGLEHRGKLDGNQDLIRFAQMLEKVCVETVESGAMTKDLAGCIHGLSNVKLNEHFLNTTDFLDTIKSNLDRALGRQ
Procedure: Compounds are assayed for IDH2 R172K inhibitory activity through a cofactor depletion assay. […] The reaction is terminated by the addition of a second enzyme, diaphorase, and a corresponding substrate, resazurin. Diaphorase reduces resazurin to the highly fluorescent resorufin with the concomitant oxidation of NADPH to NADP, both halting the IDH2 reaction by depleting the available cofactor pool and facilitating quantitation of the amount of cofactor remaining after a specific time period through quantitative production of an easily detected fluorophore.
Specifically, into each of 12 wells of a 384-well plate, 1 μl of 100× compound dilution series is placed, followed by the addition of 40 μl of buffer (50 mM potassium phosphate (K2HPO4), pH 7.5; 150 mM NaCl; 10 mM MgCl2, 10% glycerol, 0.05% bovine serum albumin, 2 mM beta-mercaptoethanol) containing 1.25 μg/ml IDH2 R172K. The test compound is then incubated for 16 hours at room temperature with the enzyme; before starting the IDH2 reaction with the addition of 10 μl of substrate mix containing 50 μM NADPH and 6.3 mM α-KG in the buffer described above. After a further one hour of incubation at room temperature, the reaction is halted and the remaining NADPH measured through conversion of resazurin to resorufin by the addition of 25 μl Stop Mix (36 μg/ml diaphorase enzyme and 60 μM resazurin; in buffer). After one minute of incubation the plate is read on a plate reader at Ex544/Em590.
For determination of the inhibitory potency of compounds against IDH2 R140Q in an assay format similar to the above, a similar procedure is performed, except that the final testing concentration is 0.25 μg/ml IDH2 R140Q protein, 4 μM NADPH and 1.6 mM α-KG.
For determination of the inhibitory potency of compounds against IDH2 R140Q in a high throughput screening format, a similar procedure is performed, except that 0.25 μg/ml IDH2 R140Q protein was utilized in the preincubation step, and the reaction is started with the addition of 4 μM NADPH and 8 μM α-KG.

`Nc1cc(Nc2cc(C(F)(F)F)ccn2)nc(-c2cccc(C(F)(F)F)n2)n1` [Compound 722] was tested, and the “Cell R140Q” value [1] was “D” and the IC50 (IDH2 R140Q) was > 100 nM.

For `CC(C)(O)CNc1cc(Nc2cc(C(F)(F)F)ccn2)nc(-c2cccc(C(F)(F)F)n2)n1` [Compound 718], the IC50 [1] was < 50 nM and the IC50 (IDH2 R140Q) was < 50 nM.

`CC(C)Nc1cc(Nc2ccccc2)nc(-c2ccccc2)n1` [Compound 700] was tested, and the IC50 [1] was > 100 nM and the IC50 (IDH2 R140Q) was 50 to 100 nM.

For `CC(C)Nc1cc(Nc2ccccn2)nc(-c2cccc(C(F)(F)F)n2)n1` [Compound 704], the IC50 [1] was < 50 nM and the IC50 (IDH2 R140Q) was < 50 nM.

With `CC(C)Nc1cc(-c2cccc(C(F)(F)F)n2)nc(Nc2ccnc(C(F)(F)F)c2)n1` [Compound 739] the IC50 [1] was > 100 nM and the IC50 (IDH2 R140Q) was < 50 nM.

For `FC(F)(F)c1ccnc(Nc2cc(NCC3CC3)nc(-c3cccc(C(F)(F)F)n3)n2)c1` [Compound 715], the IC50 [1] was < 50 nM and the IC50 (IDH2 R140Q) was < 50 nM.

In the case of `CC(C)Nc1cc(Nc2ccnc(C(F)(F)F)c2)nc(-c2cccc(C(F)(F)F)n2)n1` [Compound 706], the IC50 [1] is reported as < 50 nM and the IC50 (IDH2 R140Q) is reported as < 50 nM.

`Nc1cc(Nc2ccnc(C(F)(F)F)c2)nc(-c2cccc(C(F)(F)F)n2)n1` [Compound 728] was tested, and the “Cell R140Q” value [1] was “D” and the “Enz R140Q” value (IDH2 R140Q) was “D”.

For `CC(C)Nc1cc(Nc2cc(Cl)ccn2)nc(-c2cccc(C(F)(F)F)n2)n1` [Compound 705], the IC50 [1] was < 50 nM and the IC50 (IDH2 R140Q) was < 50 nM.

For `O=C(Cc1ccccc1)Nc1nc(Nc2ccccc2)cc(-c2ccccc2)n1` [Compound 734], the IC50 [1] was > 100 nM and the “Enz R140Q” value (IDH2 R140Q) was “D”.

`CC(C)OC(=O)Nc1cc(Nc2ccccc2)nc(-c2ccccc2)n1` [Compound 703] was tested, and the IC50 [1] was > 100 nM and the “Enz R140Q” value (IDH2 R140Q) was “D”.

In the case of `CC(C)Nc1cc(Nc2cc(C(F)F)ccn2)nc(-c2cccc(C(F)(F)F)n2)n1` [Compound 714], the IC50 [1] is reported as < 50 nM and the IC50 (IDH2 R140Q) is reported as < 50 nM.

`CC(C)Nc1cc(Nc2cc(C(C)(F)F)ccn2)nc(-c2cccc(C(F)(F)F)n2)n1` [Compound 713] was tested, and the IC50 [1] was < 50 nM and the IC50 (IDH2 R140Q) was < 50 nM.

`CC(C)(C)Nc1cc(Nc2cc(C3(C#N)CC3)ccn2)nc(-c2cccc(C(F)(F)F)n2)n1` [Compound 721] was tested, and the IC50 [1] was < 50 nM and the IC50 (IDH2 R140Q) was 50 to 100 nM.

With `CC(C)Nc1cc(Nc2cc(C#N)ccn2)nc(-c2cccc(C(F)(F)F)n2)n1` [Compound 712] the IC50 [1] was < 50 nM and the IC50 (IDH2 R140Q) was < 50 nM.

In the case of `CC(C)Nc1cc(-c2ccccc2)nc(Nc2ccccc2)n1` [Compound 730], the IC50 [1] is reported as 50 to 100 nM and the IC50 (IDH2 R140Q) is reported as 50 to 100 nM.

In the case of `CC(C)Nc1cc(Nc2cc(C3(C#N)CC3)ccn2)nc(-c2cccc(C(F)(F)F)n2)n1` [Compound 720], the IC50 [1] is reported as < 50 nM and the IC50 (IDH2 R140Q) is reported as < 50 nM.

`CC(C)(C)Nc1cc(Nc2cc(C(F)(F)F)ncn2)nc(-c2cccc(C(F)(F)F)n2)n1` [Compound 723] was tested, and the “Cell R140Q” value [1] was “D” and the IC50 (IDH2 R140Q) was 50 to 100 nM.

In the case of `CC(C)(C)Nc1cc(Nc2cc(C(F)(F)F)ccn2)nc(-c2cccc(C(F)(F)F)n2)n1` [Compound 716], the IC50 [1] is reported as < 50 nM and the IC50 (IDH2 R140Q) is reported as 50 to 100 nM.

For `COc1ccc(CNc2cc(Nc3cc(C(F)(F)F)ncn3)nc(-c3cccc(C(F)(F)F)n3)n2)cc1` [Compound 724], the “Cell R140Q” value [1] was “D” and the IC50 (IDH2 R140Q) was < 50 nM.

`COc1ccc(CNc2cc(Nc3ccnc(C(F)(F)F)c3)nc(-c3cccc(C(F)(F)F)n3)n2)cc1` [Compound 727] was tested, and the “Cell R140Q” value [1] was “D” and the IC50 (IDH2 R140Q) was 50 to 100 nM.

For `CC(C)Nc1cc(Nc2ccccc2)nc(-c2cccc(C(F)(F)F)n2)n1` [Compound 708], the IC50 [1] was 50 to 100 nM and the IC50 (IDH2 R140Q) was < 50 nM.

For `CC(C)CC(=O)Nc1cc(Nc2ccccc2)nc(-c2ccccc2)n1` [Compound 701], the IC50 [1] was > 100 nM and the “Enz R140Q” value (IDH2 R140Q) was “D”.

In the case of `CC(C)(O)CNc1cc(Nc2ccnc(C(F)(F)F)c2)nc(-c2cccc(C(F)(F)F)n2)n1` [Compound 709], the IC50 [1] is reported as > 100 nM and the IC50 (IDH2 R140Q) is reported as > 100 nM.

`CC(C)(O)CNc1cc(Nc2ccccn2)nc(-c2cccc(C(F)(F)F)n2)n1` [Compound 707] was tested, and the IC50 [1] was > 100 nM and the IC50 (IDH2 R140Q) was > 100 nM.

For `CC(C)C(=O)Nc1cc(-c2ccccc2)nc(Nc2ccccc2)n1` [Compound 736], the IC50 [1] was > 100 nM and the “Enz R140Q” value (IDH2 R140Q) was “D”.

For `CC(C)OC(=O)Nc1cc(-c2ccccc2)nc(Nc2ccccc2)n1` [Compound 737], the “Cell R140Q” value [1] was “D” and the “Enz R140Q” value (IDH2 R140Q) was “D”.

For `CC(C)Nc1cc(Nc2cc(C(F)(F)F)ccn2)nc(-c2cccc(C(F)(F)F)n2)n1` [Compound 711], the IC50 [1] was < 50 nM and the IC50 (IDH2 R140Q) was < 50 nM.

`CC(C)Nc1cc(Nc2cccc(Cl)n2)nc(-c2cccc(C(F)(F)F)n2)n1` [Compound 710] was tested, and the IC50 [1] was < 50 nM and the IC50 (IDH2 R140Q) was < 50 nM.

For `CC(C)CC(=O)Nc1cc(-c2ccccc2)nc(Nc2ccccc2)n1` [Compound 735], the IC50 [1] was > 100 nM and the IC50 (IDH2 R140Q) was > 100 nM.

For `CC(C)Nc1nc(Nc2ccccc2)cc(-c2ccccc2)n1` [Compound 729], the “Cell R140Q” value [1] was “D” and the “Enz R140Q” value (IDH2 R140Q) was “D”.

`CC(C)Nc1nc(Nc2ccnc(C(F)(F)F)c2)cc(-c2cccc(C(F)(F)F)n2)n1` [Compound 738] was tested, and the IC50 [1] was 50 to 100 nM and the IC50 (IDH2 R140Q) was < 50 nM.

`CC(C)Nc1cc(Nc2cc(C(F)(F)F)ncn2)nc(-c2cccc(C(F)(F)F)n2)n1` [Compound 717] was tested, and the IC50 [1] was < 50 nM and the IC50 (IDH2 R140Q) was < 50 nM.

For `CC(C)C(=O)Nc1cc(Nc2ccccc2)nc(-c2ccccc2)n1` [Compound 702], the IC50 [1] was > 100 nM and the IC50 (IDH2 R140Q) was < 50 nM.

`N#CC1(c2ccnc(Nc3cc(NCC4CC4)nc(-c4cccc(C(F)(F)F)n4)n3)c2)CC1` [Compound 719] was tested, and the IC50 [1] was < 50 nM and the IC50 (IDH2 R140Q) was < 50 nM.

In the case of `Nc1cc(Nc2cc(C(F)(F)F)ncn2)nc(-c2cccc(C(F)(F)F)n2)n1` [Compound 726], the “Cell R140Q” value [1] is reported as “D” and the IC50 (IDH2 R140Q) is reported as > 100 nM.

`CC(C)(CO)Nc1cc(Nc2cc(C(F)(F)F)ncn2)nc(-c2cccc(C(F)(F)F)n2)n1` [Compound 725] was tested, and the “Cell R140Q” value [1] was “D” and the IC50 (IDH2 R140Q) was 50 to 100 nM.
